Legend:
Experiment in all cases: relative viability (nuclei count vs DMSO), 5 days (fraction); higher = more cells survive
[1] = compound: C(C(=O)C(=O)O)Br [Bromopyruvate] + C[C@@H](Oc1cc(-c2cnn(C3CCNCC3)c2)cnc1N)c1c(Cl)ccc(F)c1Cl [Crizotinib] (partner 1 µM)
In short: (§1)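 Dosing by pin tool came one day after lung cancer cell lines were seeded in 1536-well plates, using either one drug or a fixed anchor-drug dose plus five library-drug doses (not always all listed) in √10 steps. After 5 days, nuclei were counted on 4× images. Relative viability is treated-well nuclei count divided by vehicle-well nuclei count, and values are medians of duplicate plates.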

Bicalutamide + Dasatinib = compound: CC(O)(CS(=O)(=O)c1ccc(F)cc1)C(=O)Nc1ccc(C#N)c(C(F)(F)F)c1 [Bicalutamide] + Cc1nc(Nc2ncc(C(=O)Nc3c(C)cccc3Cl)s2)cc(N2CCN(CCO)CC2)n1 [Dasatinib] (partner 0.075 µM)
In short: as §1

[2] = compound: CC(O)(CS(=O)(=O)c1ccc(F)cc1)C(=O)Nc1ccc(C#N)c(C(F)(F)F)c1 [Bicalutamide] + CCNC(=O)c1noc(-c2cc(C(C)C)c(O)cc2O)c1-c1ccc(CN2CCOCC2)cc1 [Luminespib] (partner 0.01 µM)
In short: as §1

[3] = compound: CC(O)(CS(=O)(=O)c1ccc(F)cc1)C(=O)Nc1ccc(C#N)c(C(F)(F)F)c1 [Bicalutamide] + CC1(C)CCC(c2ccc(Cl)cc2)=C(CN2CCN(c3ccc(C(=O)NS(=O)(=O)c4ccc(N[C@H](CCN5CCOCC5)CSc5ccccc5)c(S(=O)(=O)C(F)(F)F)c4)cc3)CC2)C1 [Navitoclax] (partner 0.5 µM)
In short: as §1

Cell Line | relative viability ([1]; first compound 1 µM) | relative viability ([1]; first compound 3.162 µM) | relative viability ([1]; first compound 10 µM) | relative viability ([1]; first compound 31.62 µM) | relative viability ([1]; first compound 100 µM) | relative viability (Bicalutamide + Dasatinib; first compound 0.08 µM) | relative viability (Bicalutamide + Dasatinib; first compound 0.253 µM) | relative viability (Bicalutamide + Dasatinib; first compound 0.8 µM) | relative viability (Bicalutamide + Dasatinib; first compound 2.53 µM) | relative viability ([2]; first compound 0.08 µM) | relative viability ([2]; first compound 0.253 µM) | relative viability ([2]; first compound 0.8 µM) | relative viability ([2]; first compound 2.53 µM) | relative viability ([3]; first compound 0.253 µM) | relative viability ([3]; first compound 0.8 µM) | relative viability ([3]; first compound 2.53 µM) | relative viability ([3]; first compound 0.08 µM)
NCI-H1993 | 1.25 | 0.931 | 0.899 | 0.84 | 0.867 | 0.576 | 0.461 | 0.711 | 0.582 | 0.835 | 0.894 | 1.07 | 0.999 | 0.896 | 0.912 | 1.02 | 
NCI-H2009 | 1.05 | 1.1 | 1.03 | 0.921 | 0.724 | 0.337 | 0.321 | 0.278 | 0.222 | 1.06 | 1.01 | 0.987 | 1.04 | 1.24 | 1.14 | 1.08 | 1.29
NCI-H2023 | 0.685 | 0.658 | 0.618 | 0.785 | 0.542 | 0.599 | 0.48 | 0.758 | 0.488 | 0.868 | 0.703 | 1 | 0.634 | 1.04 | 1.06 | 0.945 | 1.08
NCI-H2085 | 0.823 | 0.984 | 0.874 | 0.778 | 0.797 | 0.227 | 0.261 | 0.267 | 0.228 | 0.59 | 0.587 | 0.459 | 0.448 | 1.17 | 1.22 | 0.902 | 1.19
NCI-H2087 | 0.9 | 0.957 | 0.661 | 0.78 | 0.78 | 0.851 | 0.87 | 1.05 | 0.816 | 0.157 | 0.153 | 0.168 | 0.259 | 1.09 | 1.1 | 0.974 | 1.15
NCI-H2126 | 1.02 | 1.07 | 1.04 | 0.99 | 0.988 | 0.628 | 0.581 | 0.632 | 0.555 | 0.923 | 0.904 | 1.16 | 0.915 | 0.806 | 0.873 | 0.847 | 0.929
NCI-H2170 | 1.33 | 1.24 | 1.2 | 1.29 | 1.15 | 0.532 | 0.497 | 0.584 | 0.563 | 0.689 | 0.527 | 0.588 | 0.591 | 0.506 | 0.661 | 0.591 | 0.553
NCI-H2228 | 0.44 | 0.641 | 0.492 | 0.404 | 0.617 | 0.476 | 0.479 | 0.522 | 0.55 | 0.231 | 0.241 | 0.169 | 0.14 | 0.863 | 0.856 | 0.959 | 0.636
NCI-H2347 | 0.753 | 0.602 | 0.951 | 0.595 | 0.684 | 0.318 | 0.307 | 0.299 | 0.308 | 0.357 | 0.399 | 0.263 | 0.673 | 0.795 | 0.848 | 0.774 | 0.853
NCI-H2405 | 0.79 | 0.841 | 1.04 | 0.696 | 0.907 | 0.23 | 0.199 | 0.235 | 0.154 | 0.669 | 0.661 | 0.826 | 0.627 | 0.816 | 0.987 | 0.925 | 0.948
NCI-H3122 | 0.252 | 0.263 | 0.304 | 0.289 | 0.248 | 0.922 | 0.791 | 0.938 | 0.889 | 0.0979 | 0.0782 | 0.126 | 0.106 | 1.01 | 1.02 | 1.03 | 0.991
PC-3 [JPC-3] | 1.03 | 1 | 0.944 | 1.01 | 0.983 | 1.04 | 0.946 | 1.05 | 0.947 | 0.665 | 0.659 | 0.667 | 0.734 | 0.775 | 0.869 | 0.91 | 0.867
PC-14 | 0.991 | 0.868 | 0.826 | 0.966 | 0.997 | 0.263 | 0.223 | 0.264 | 0.18 | 0.16 | 0.148 | 0.198 | 0.137 | 0.944 | 1.02 | 1.08 | 0.948
RERF-LC-KJ | 0.771 | 0.82 | 0.855 | 0.813 | 0.891 | 0.91 | 0.814 | 1.04 | 0.694 | 1.24 | 1.2 | 1.36 | 1.2 | 0.98 | 0.793 | 0.799 | 0.951
SK-LU-1 | 1.05 | 0.99 | 0.831 | 0.856 | 0.794 | 0.175 | 0.206 | 0.177 | 0.169 | 0.189 | 0.188 | 0.217 | 0.188 | 1.04 | 1.38 | 0.902 | 1.04
SK-MES-1 | 0.974 | 0.952 | 1.02 | 0.997 | 1.05 | 0.343 | 0.358 | 0.427 | 0.301 | 0.609 | 0.736 | 0.97 | 0.709 | 1.19 | 1.26 | 1.17 | 1.13
SW 1573 | 1.02 | 0.815 | 0.76 | 0.803 | 0.57 | 0.525 |  | 0.683 | 0.275 | 0.506 | 0.213 | 0.209 | 0.181 | 0.914 | 1.17 | 1.16 | 0.908
